From patent US5877210A, “Phosphotyrosine phosphatase inhibitors or phosphotyrosine kinase activators for controlling cellular proliferation” (priority 1995, dated 1999)

How the values were obtained:
Ramos [1] = assay: Clonogenic assay in methylcellulose; format: cell-based, human; conditions: doses of 10 and 25 μM
Protocol: The selective cytotoxicity of BMLOV was examined in clonogenic assays. Cells were grown in methylcellulose media and the number of colonies formed after seven days of treatment with various doses of the drug were determined. The clonogenic assays were performed with six replicates for each treatment as described [F. M. Uckun et al., J. Exp. Med. 163:347-368 (1986); F. M. Uckun & J. A. Ledbetter, Proc. Natl. Acad. Sci. USA 85:8603-8607 (1988)). The data is given plus/minus the standard error of the mean.
For assays of cellular proliferation, cells were grown five days in the presence of the indicated concentrations of BMLOV, pulsed 6 hr with [^3 H]-thymidine (New England Nuclear, Boston, Mass.), and counted in a liquid scintillation counter. Human peripheral blood lymphocytes (PBL) from normal volunteers were isolated from lymphocyte separation medium (Litton Bionetics, Kensington, Md.) by density gradient centrifugation. Monocytes were depleted from PBL by two rounds of plastic absorption for 30 minutes at 37° C. B cells were enriched for by negative selection using complement plus monoclonal antibodies to CD2, CD3, CD4, and CD8 for complement depletion. Clonogenic assays of colony formation in methylcellulose medium were performed as previously described (F. M. Uckun et al. (1992), supra).

Ramos [2] = assay: Clonogenic assay in methylcellulose; format: cell-based, human; conditions: Ramos B cells
Ramos cells = assay: Anti-phosphotyrosine western blot of cell lysates; format: cell-based, human; conditions: FIG. 11; whole cell lysates
Ramos [3] = conditions: previous studies (Uckun et al. 1992); cited from earlier work
[4] = tested on: calf intestinal alkaline phosphatase; conditions: reported by Cortizo et al.; cited from earlier work
HCT116 = assay: In vitro cytotoxicity, XTT assay; conditions: Homo sapiens, HCT-116, 72 h, read-out: IC50 (cytotoxicity)
Protocol: (§1) The vanadate compound pV(phen) was tested for in vitro cytotoxicity in a panel of human tumor cell lines. The cell lines used were a human colon carcinoma cell line, HCT116, and two drug-resistant sublines. The HCT116(VM46) subline was selected for resistance to VM-26 and expresses the multidrug resistant (MDR) phenotype including resistance to lipophilic anticancer drugs such as paclitaxel, VP-16, VM-26, doxorubicin, and vinblastine. This cell line overexpresses P-glycoprotein, a cell surface drug efflux pump, which limits accumulation of anticancer drugs such as the ones mentioned above. […] The compound pV(phen) was also evaluated in the ovarian carcinoma cell line A2780 and a paclitaxel resistant subline A2780-Tax22.
(§2) In the cytotoxicity assays, cells were plated and 24 hr later drugs were added and serially diluted. After 72 hr of continuous drug exposure, the tetrazolium dye XTT was added. A dehydrogenase enzyme in live cells reduces the XTT to a form that absorbs light at 450 nm which can be quantitated spectrophotometrically. The greater absorbance, the greater is the number of live cells. The results are expressed as a IC50 which is a drug concentration required to inhibit cell proliferation (i.e., absorbance at 450 nm) to 50% of that of untreated control cells.

HCT116(VM)46 = assay: In vitro cytotoxicity, XTT assay
Protocol: as §1, §2

A2780 = assay: In vitro cytotoxicity, XTT assay; conditions: Homo sapiens, A2780, 72 h, read-out: IC50 (cytotoxicity)
Protocol: as §1, §2

A2780/Tax22 = assay: In vitro cytotoxicity, XTT assay
Protocol: as §1, §2

HCT116(VP)35 = assay: In vitro cytotoxicity, XTT assay
Protocol: as §1, §2

For `CC(=O)C=C(C)[O-].CC(=O)C=C(C)[O-].[Cu+2]` [cupric acetylacetonate], the “sensitivity in clonogenic assay, in words” value (Ramos [1]) was “sensitive to the compound”, the Colonies (Ramos [2]; 1 μM cupric acetylacetonate) was 5749 and the Colonies (Ramos [2]; 5 μM cupric acetylacetonate) was 226. For the same molecule, the Colonies (Ramos [2]; 10 μM cupric acetylacetonate) was 127, the Colonies (Ramos [2]; 25 μM cupric acetylacetonate) was 31 and the “induction of cellular tyrosine phosphorylation by analogs” value (shortened to “induction … by analogs”) (Ramos cells) was “induced tyrosine phosphorylation, but in a different pattern than for the vanadyl compounds”.

In the case of `[Na+].[Na+].[Na+].[O]=[V]([O-])([O-])[O-]` [sodium orthovanadate], the “effect on Ramos cells in clonogenic assays” value (Ramos [3]) is given as “only gave slight effects” and the “concentration strongly inhibiting calf intestinal alkaline phosphatase” value [4] is given as “less than 20 μM”.

In the case of `CC(=O)/C=C(/C)[O-].CC(=O)/C=C(/C)[O-].[O]=[V+2]` [vanadyl acetylacetonate], the “induction … by analogs” value (Ramos cells) is reported as “strongly induced cellular tyrosine phosphorylation”.

In the case of `CC(=O)O[C@H]1C(=O)[C@@]2(C)[C@H]([C@H](OC(=O)c3ccccc3)[C@]3(O)C[C@H](OC(=O)[C@H](O)[C@@H](NC(=O)c4ccccc4)c4ccccc4)C(C)=C1C3(C)C)[C@]1(OC(C)=O)CO[C@@H]1C[C@@H]2O` [Paclitaxel, reference compound], the IC50 (HCT116) is reported as 3 nM, the IC50 (HCT116(VM)46; Homo sapiens, HCT-116/VM46, 72 h, read-out: IC50 (cytotoxicity)) is reported as 226 nM and the “fold resistance relative to parental cell line” value (HCT116(VM)46; vs HCT116, 4320 min) is reported as 75 fold. The IC50 (A2780) was 4 nM, the IC50 (A2780/Tax22; Homo sapiens, A2780, 72 h, read-out: IC50 (cytotoxicity)) was 75 nM and the “fold resistance relative to parental cell line” value (A2780/Tax22; vs A2780, 4320 min) was 18 fold. The IC50 (HCT116(VP)35; Homo sapiens, HCT-116, 72 h, read-out: IC50 (cytotoxicity)) was 2 nM and the “fold resistance relative to parental cell line” value (HCT116(VP)35; vs HCT116, 4320 min) was 0.7 fold.

In the case of `CC(=O)C=C([O-])c1ccccc1.CC(=O)C=C([O-])c1ccccc1.[O]=[V+2]` [vanadyl 1-benzoyl acetonate], the “induction … by analogs” value (Ramos cells) is reported as “strongly induced cellular tyrosine phosphorylation”.
